{"source": "patent US20250255850A1", "about": "“PHARMACEUTICAL COMPOSITIONS FOR TREATING NEUROLOGICAL CONDITIONS” (YISSUM RESEARCH DEVELOPMENT COMPANY OF THE HEBREW …, priority 2021, published 2025)", "key": {"SH-SY5Y cells": {"system": "SH-SY5Y cells", "experiment": "Clonogenic survival assay", "assay_type": "cell-based, human", "conditions": "7-NI 100 μM for 24 hours or siRNA-nNOS, 14 days", "method": "Cells were seeded into 6-well plates at concentrations of 500/well or 1000/well in triplicates. After 24 hours, 7-NI was added (100 μM for 24 hours), or cells were transiently transfected with siRNA-nNOS, as described above, before changing to serum-containing medium. Cells were incubated for 14 days to form visible colonies. Colonies were stained with crystal violet, washed with PBS, air-dried, and imaged. The colonies were visualized using ImageJ software. Cell colonies of greater than 50 cells were identified and counted (Lopez-Rivera et al., 2014)."}, "SHANK3 knockout mice": {"system": "SHANK3 knockout mice", "experiment": "Novel object recognition test, SHANK3 knockout mice (M1)", "assay_type": "in vivo, mouse", "conditions": "7-NI IP 80 mg/kg/day for 10 days", "method": "(§1) Behavioral testing started after 2 hours of treatment.\n(§2) Novel object recognition (see, FIG. 4A): The novel object test for object recognition and memory takes place in a white open field arena (45×45 cm). The test involves a set of two unique novel objects, each about the size of a mouse, constructed from two different materials and non-uniform in shape. The test consisted of one 10-minute habituation session, a 5-minute familiarization session and a 5-minute recognition test, each video tracked (Noldus Ethovision). During the habituation, animals were allowed to freely explore an empty open field. At the end of the session, they were shifted from the open field to a place in a temporary clean holding cage for about 2 minutes. Two identical objects were placed on the median line at 10 cm from each wall and the animal was returned to the open field and allowed to explore the objects for 5 minutes before being returned to its home cage. Next day, one familiar object and one novel object were placed in the open field to the location where the identical objects were placed during the familiarization session and the mouse was allowed to explore them for a 5-minute recognition test. […] Familiarization and recognition sessions were scored for total time spent investigating each object, the number of object interactions and the latency of the first object interaction. […]"}, "[1]": {"conditions": "cited from earlier work"}, "[2]": {"system": "Mutant mice (CNTNAP2 and SHANK3 mouse models)", "experiment": "Novel object recognition test (NOR), 7-NI-treated mutant mice (Example 3)", "assay_type": "in vivo", "conditions": "7-NI IP 80 mg/kg/day for 7 days; mutant mice vs vehicle", "method": "as §1, §2"}, "[3]": {"system": "Mutant mice (CNTNAP2 and SHANK3 mouse models)", "experiment": "Sociability test, 7-NI-treated mutant mice (Example 3)", "assay_type": "in vivo", "conditions": "7-NI IP 80 mg/kg/day for 7 days; mutant mice vs vehicle", "method": "as §1\n(§3) Three-chambered sociability test (see, FIG. 4B): Sociability and preference for social novelty and social recognition were tested in a three-chambered apparatus. The subjected mouse was first placed in the central, neutral chamber and allowed to explore for 10 minutes with all the doors closed. Next, doors were opened and the mouse was allowed to freely explore the other two empty chambers (1 and 2) for an additional 10 minutes. Lack of side preference was confirmed during this habituation.\n(§4) Two cylindrical wire cages were placed, one in chamber 1 and the other in chamber 2. For the sociability test, the test animal was introduced to the middle chamber and allowed to adjust for 5 minutes. Then, an unfamiliar mouse was introduced into a wire cage in one of the side-chambers, and the other side-chamber remained empty. The time spent by the test mouse exploring the wire cage with an unfamiliar mouse inside was recorded for 5 minutes.\n7-nitroindazole (7-NI) is a selective inhibitor of neuronal nitric oxide synthase. Mutant mice were administered with 7-NI […] (IP), 80 mg/kg/day for 7 days, as described hereinabove. […]"}, "CNTNAP2−/− mutant mice": {"system": "CNTNAP2−/− mutant mice", "experiment": "Three-chamber sociability test, CNTNAP2-/- mutant mice (M2)", "assay_type": "in vivo, mouse", "conditions": "7-NI i.p. 80 mg/kg daily for 10 days, vs untreated M2", "method": "as §1, §3, §4\nIn another set of tests, the potential effects of inhibiting NO on the cognitive functions was assayed on an additional mouse model of ASD-CNTNAP2−/− mutant mice. The mice were divided into three testing groups: WT mice, CNTNAP2−/− mutant mice (M2), and mutant mice that were administered with 7-NI (M2+7NI)."}}, "data": [{"smiles": "O=[N+]([O-])c1cccc2cn[nH]c12", "note": "[7-NI, 7-nitroindazole]", "values": [{"measurement": "number of colonies (clonogenic survival)", "setting": "SH-SY5Y cells", "value": "decrease in the number of colonies"}, {"measurement": "preference for the novel object (NOR test)", "setting": "SHANK3 knockout mice; SHANK3 knockout mice aged 6 weeks", "value": "exhibited a significant preference for the novel object over the familiar one"}, {"measurement": "memory (novel object recognition) in aged mice", "setting": "SHANK3 knockout mice; SHANK3 knockout mice aged 10 months", "value": "restored"}, {"measurement": "solubility in aqueous medium", "setting": "[1]", "value": "very low solubility"}, {"measurement": "preference for the novel object (NOR test)", "setting": "[2]", "value": "exhibited a significant preference for the novel object over the familiar object"}, {"measurement": "time interacting with the stranger cage (sociability test)", "setting": "[3]", "value": "spent significantly more time interacting with the stranger cage"}, {"measurement": "time interacting with the stranger mouse (three-chamber sociability)", "setting": "CNTNAP2−/− mutant mice", "value": "spent significantly prolonged time interacting with the stranger mouse"}]}]}
